Numbers after ± are expanded uncertainties.
Assay: xn = mol fraction of the nth substance listed
Settings: 101 kPa, Liquid; for viscosity: Concentric cylinders viscometry; for mass density: Vibrating tube method

**Q.** For `CCOC(=O)C(C)O` (stereo not drawn) [DL-ethyl lactate] + CN1CCCC1=O, which viscosity (308.15 K, x1 = 0.0999) is on record?
**A.** 1.646 ± 0.016 mPa·s

**Q.** What about the viscosity (308.15 K, x1 = 0.2) of the same compound?
**A.** 1.786 ± 0.017 mPa·s

**Q.** What about the viscosity (308.15 K, x1 = 0.3001) of the same compound?
**A.** 1.927 ± 0.019 mPa·s

**Q.** And the viscosity (308.15 K, x1 = 0.4)?
**A.** 2.026 ± 0.02 mPa·s

**Q.** What about the viscosity (308.15 K, x1 = 0.4997) of the same compound?
**A.** 2.116 ± 0.021 mPa·s

**Q.** What about the viscosity (308.15 K, x1 = 0.6) of the same compound?
**A.** 2.16 ± 0.022 mPa·s

**Q.** What about the viscosity (308.15 K, x1 = 0.7002) of the same compound?
**A.** 2.156 ± 0.022 mPa·s

**Q.** What about the viscosity (308.15 K, x1 = 0.7999) of the same compound?
**A.** 2.115 ± 0.022 mPa·s

**Q.** And the viscosity (308.15 K, x1 = 0.8997)?
**A.** 2.026 ± 0.021 mPa·s

**Q.** What about the viscosity (308.15 K, x1 = 1) of the same compound?
**A.** 1.858 ± 0.02 mPa·s

**Q.** And the mass density (308.15 K, x1 = 0.0999)?
**A.** 1022.66 ± 0.1 kg/m3

**Q.** What about the mass density (308.15 K, x1 = 0.2) of the same compound?
**A.** 1023.5 ± 0.12 kg/m3

**Q.** And the mass density (308.15 K, x1 = 0.3001)?
**A.** 1024.34 ± 0.13 kg/m3

**Q.** And the mass density (308.15 K, x1 = 0.4)?
**A.** 1024.69 ± 0.14 kg/m3

**Q.** And the mass density (308.15 K, x1 = 0.4997)?
**A.** 1024.79 ± 0.16 kg/m3

**Q.** What about the mass density (308.15 K, x1 = 0.6) of the same compound?
**A.** 1024.38 ± 0.17 kg/m3

**Q.** What about the mass density (308.15 K, x1 = 0.7002) of the same compound?
**A.** 1023.5 ± 0.19 kg/m3

**Q.** And the mass density (308.15 K, x1 = 0.7999)?
**A.** 1022.2 ± 0.21 kg/m3

**Q.** What about the mass density (308.15 K, x1 = 0.8997) of the same compound?
**A.** 1020.34 ± 0.23 kg/m3

**Q.** And the mass density (308.15 K, x1 = 1)?
**A.** 1017.42 ± 0.24 kg/m3

**Q.** And the viscosity (313.15 K, x1 = 0.0999)?
**A.** 1.525 ± 0.015 mPa·s

**Q.** What about the viscosity (313.15 K, x1 = 0.2) of the same compound?
**A.** 1.646 ± 0.016 mPa·s

**Q.** And the viscosity (313.15 K, x1 = 0.3001)?
**A.** 1.765 ± 0.017 mPa·s

**Q.** And the viscosity (313.15 K, x1 = 0.4)?
**A.** 1.845 ± 0.018 mPa·s

**Q.** What about the viscosity (313.15 K, x1 = 0.4997) of the same compound?
**A.** 1.918 ± 0.019 mPa·s

**Q.** What about the viscosity (313.15 K, x1 = 0.6) of the same compound?
**A.** 1.948 ± 0.02 mPa·s

**Q.** And the viscosity (313.15 K, x1 = 0.7002)?
**A.** 1.937 ± 0.02 mPa·s

**Q.** And the viscosity (313.15 K, x1 = 0.7999)?
**A.** 1.896 ± 0.02 mPa·s

**Q.** And the viscosity (313.15 K, x1 = 0.8997)?
**A.** 1.816 ± 0.019 mPa·s

**Q.** What about the viscosity (313.15 K, x1 = 1) of the same compound?
**A.** 1.658 ± 0.018 mPa·s

**Q.** And the mass density (313.15 K, x1 = 0.0999)?
**A.** 1018.16 ± 0.1 kg/m3

**Q.** And the mass density (313.15 K, x1 = 0.2)?
**A.** 1018.95 ± 0.11 kg/m3

**Q.** And the mass density (313.15 K, x1 = 0.3001)?
**A.** 1019.72 ± 0.13 kg/m3

**Q.** And the mass density (313.15 K, x1 = 0.4)?
**A.** 1019.99 ± 0.14 kg/m3

**Q.** And the mass density (313.15 K, x1 = 0.4997)?
**A.** 1020 ± 0.15 kg/m3

**Q.** What about the mass density (313.15 K, x1 = 0.6) of the same compound?
**A.** 1019.48 ± 0.17 kg/m3

**Q.** And the mass density (313.15 K, x1 = 0.7002)?
**A.** 1018.46 ± 0.19 kg/m3

**Q.** And the mass density (313.15 K, x1 = 0.7999)?
**A.** 1017.01 ± 0.2 kg/m3

**Q.** What about the mass density (313.15 K, x1 = 0.8997) of the same compound?
**A.** 1015 ± 0.22 kg/m3

**Q.** And the mass density (313.15 K, x1 = 1)?
**A.** 1011.9 ± 0.24 kg/m3

**Q.** And the viscosity (318.15 K, x1 = 0.0999)?
**A.** 1.417 ± 0.014 mPa·s

**Q.** And the viscosity (318.15 K, x1 = 0.2)?
**A.** 1.523 ± 0.015 mPa·s

**Q.** What about the viscosity (318.15 K, x1 = 0.3001) of the same compound?
**A.** 1.625 ± 0.016 mPa·s

**Q.** What about the viscosity (318.15 K, x1 = 0.4) of the same compound?
**A.** 1.689 ± 0.017 mPa·s

**Q.** What about the viscosity (318.15 K, x1 = 0.4997) of the same compound?
**A.** 1.748 ± 0.018 mPa·s

**Q.** And the viscosity (318.15 K, x1 = 0.6)?
**A.** 1.768 ± 0.018 mPa·s

**Q.** What about the viscosity (318.15 K, x1 = 0.7002) of the same compound?
**A.** 1.751 ± 0.018 mPa·s

**Q.** And the viscosity (318.15 K, x1 = 0.7999)?
**A.** 1.712 ± 0.018 mPa·s

**Q.** And the viscosity (318.15 K, x1 = 0.8997)?
**A.** 1.636 ± 0.017 mPa·s

**Q.** What about the viscosity (318.15 K, x1 = 1) of the same compound?
**A.** 1.491 ± 0.016 mPa·s

**Q.** What about the mass density (318.15 K, x1 = 0.0999) of the same compound?
**A.** 1013.66 ± 0.099 kg/m3

**Q.** What about the mass density (318.15 K, x1 = 0.2) of the same compound?
**A.** 1014.4 ± 0.11 kg/m3

**Q.** What about the mass density (318.15 K, x1 = 0.3001) of the same compound?
**A.** 1015.1 ± 0.12 kg/m3

**Q.** And the mass density (318.15 K, x1 = 0.4)?
**A.** 1015.29 ± 0.14 kg/m3

**Q.** What about the mass density (318.15 K, x1 = 0.4997) of the same compound?
**A.** 1015.19 ± 0.15 kg/m3

**Q.** And the mass density (318.15 K, x1 = 0.6)?
**A.** 1014.55 ± 0.17 kg/m3

**Q.** And the mass density (318.15 K, x1 = 0.7002)?
**A.** 1013.4 ± 0.18 kg/m3

**Q.** What about the mass density (318.15 K, x1 = 0.7999) of the same compound?
**A.** 1011.81 ± 0.2 kg/m3

**Q.** What about the mass density (318.15 K, x1 = 0.8997) of the same compound?
**A.** 1009.64 ± 0.22 kg/m3

**Q.** And the mass density (318.15 K, x1 = 1)?
**A.** 1006.36 ± 0.23 kg/m3

**Q.** And the viscosity (323.15 K, x1 = 0.0999)?
**A.** 1.329 ± 0.013 mPa·s

**Q.** What about the viscosity (323.15 K, x1 = 0.2) of the same compound?
**A.** 1.422 ± 0.014 mPa·s

**Q.** What about the viscosity (323.15 K, x1 = 0.3001) of the same compound?
**A.** 1.512 ± 0.015 mPa·s

**Q.** And the viscosity (323.15 K, x1 = 0.4)?
**A.** 1.563 ± 0.016 mPa·s

**Q.** And the viscosity (323.15 K, x1 = 0.4997)?
**A.** 1.615 ± 0.016 mPa·s

**Q.** And the viscosity (323.15 K, x1 = 0.6)?
**A.** 1.62 ± 0.017 mPa·s

**Q.** And the viscosity (323.15 K, x1 = 0.7002)?
**A.** 1.602 ± 0.017 mPa·s

**Q.** And the viscosity (323.15 K, x1 = 0.7999)?
**A.** 1.568 ± 0.017 mPa·s

**Q.** What about the viscosity (323.15 K, x1 = 0.8997) of the same compound?
**A.** 1.492 ± 0.016 mPa·s

**Q.** What about the viscosity (323.15 K, x1 = 1) of the same compound?
**A.** 1.349 ± 0.015 mPa·s

**Q.** What about the mass density (323.15 K, x1 = 0.0999) of the same compound?
**A.** 1009.17 ± 0.097 kg/m3

**Q.** And the mass density (323.15 K, x1 = 0.2)?
**A.** 1009.85 ± 0.11 kg/m3

**Q.** And the mass density (323.15 K, x1 = 0.3001)?
**A.** 1010.48 ± 0.12 kg/m3

**Q.** What about the mass density (323.15 K, x1 = 0.4) of the same compound?
**A.** 1010.58 ± 0.14 kg/m3

**Q.** And the mass density (323.15 K, x1 = 0.4997)?
**A.** 1010.38 ± 0.15 kg/m3

**Q.** And the mass density (323.15 K, x1 = 0.6)?
**A.** 1009.62 ± 0.16 kg/m3

**Q.** And the mass density (323.15 K, x1 = 0.7002)?
**A.** 1008.34 ± 0.18 kg/m3

**Q.** And the mass density (323.15 K, x1 = 0.7999)?
**A.** 1006.6 ± 0.2 kg/m3

**Q.** What about the mass density (323.15 K, x1 = 0.8997) of the same compound?
**A.** 1004.28 ± 0.21 kg/m3

**Q.** What about the mass density (323.15 K, x1 = 1) of the same compound?
**A.** 1000.79 ± 0.23 kg/m3

Source: the NIST ThermoML archive (doi:10.1016/j.fluid.2015.04.017)
